Results from patent publication US20060263802A1 (priority 2003, published 2006).

Assays:
Assay type in all cases: binding
[1] = tested on: human monoclonal antibody CR57
[2] = tested on: human monoclonal antibody CRJB
[3] = tested on: human monoclonal antibody CR57; remark: listed apart in the source
[4] = tested on: human monoclonal antibody CRJA
[5] = tested on: human monoclonal antibody CRJB; remark: listed apart in the source
[6] = tested on: human monoclonal antibody CR57; remark: listed apart in the source
[7] = tested on: human monoclonal antibody CRJA; remark: listed apart in the source

KLKLCGVLGL
binding of CR57 to 12-, 10- and 8-mer peptides [1]: bound

KGACKLKLCGVL
binding of CR57 to 12-, 10- and 8-mer peptides [1]: bound

CKLKLCGVLGLR
binding of CR57 to 12-, 10- and 8-mer peptides [1]: bound

KLCGVLGL
binding of CR57 to 12-, 10- and 8-mer peptides [1]: bound

CKLKLCGVLG
binding of CR57 to 12-, 10- and 8-mer peptides [1]: bound

ACKLKLCGVL
binding of CR57 to 12-, 10- and 8-mer peptides [1]: bound

LKLCGVLG
binding of CR57 to 12-, 10- and 8-mer peptides [1]: bound

LKLCGVLGLR
binding of CR57 to 12-, 10- and 8-mer peptides [1]: bound

KLCGVLGLRLMD
binding of CR57 to 12-, 10- and 8-mer peptides [1]: bound

KLKLCGVL
binding of CR57 to 12-, 10- and 8-mer peptides [1]: bound

GACKLKLCGVLG
binding of CR57 to 12-, 10- and 8-mer peptides [1]: bound

ACKLKLCGVLGL
binding of CR57 to 12-, 10- and 8-mer peptides [1]: bound

LKLCGVLGLRLMDGT
Binding of CRJB to linear peptide (PEPSCAN-ELISA signal) [2]: 145 | Binding of CR57 to linear peptide (PEPSCAN-ELISA signal) [3]: 918 | binding of antibody CR57 to linear peptide (PEPSCAN OD) [3]: bound | Binding of CRJA to linear peptide (PEPSCAN-ELISA signal) [4]: 100 | Binding of CRJB (10 μg/ml) to looped/cyclic peptide (PEPSCAN-ELISA) [5]: 72 | Binding of CR57 (10 μg/ml) to looped/cyclic peptide (PEPSCAN-ELISA) [6]: 89 | Binding of CRJA (10 μg/ml) to looped/cyclic peptide (PEPSCAN-ELISA) [7]: 90

WSPIDIHHLSCPNNL
Binding of CRJB to linear peptide (PEPSCAN-ELISA signal) [2]: 106 | Binding of CR57 to linear peptide (PEPSCAN-ELISA signal) [3]: 80 | Binding of CRJA to linear peptide (PEPSCAN-ELISA signal) [4]: 83 | Binding of CRJB (10 μg/ml) to looped/cyclic peptide (PEPSCAN-ELISA signal) [5]: 92 | Binding of CR57 (10 μg/ml) to looped/cyclic peptide (PEPSCAN-ELISA signal) [6]: 89 | Binding of CRJA (10 μg/ml) to looped/cyclic peptide (PEPSCAN-ELISA signal) [7]: 151

RYEESLHNPYPDYRW
Binding of CRJB to linear peptide (PEPSCAN-ELISA signal) [2]: 112 | Binding of CR57 to linear peptide (PEPSCAN-ELISA signal) [3]: 69 | Binding of CRJA to linear peptide (PEPSCAN-ELISA signal) [4]: 96 | Binding of CRJB (10 μg/ml) to looped/cyclic peptide (PEPSCAN-ELISA signal) [5]: 71 | Binding of CR57 (10 μg/ml) to looped/cyclic peptide (PEPSCAN-ELISA signal) [6]: 98 | Binding of CRJA (10 μg/ml) to looped/cyclic peptide (PEPSCAN-ELISA signal) [7]: 91

VADLDPYDRSLHSRV
Binding of CRJB to linear peptide (PEPSCAN-ELISA signal) [2]: 113 | Binding of CR57 to linear peptide (PEPSCAN-ELISA signal) [3]: 71 | Binding of CRJA to linear peptide (PEPSCAN-ELISA signal) [4]: 92 | Binding of CRJB (10 μg/ml) to looped/cyclic peptide (PEPSCAN-ELISA signal) [5]: 74 | Binding of CR57 (10 μg/ml) to looped/cyclic peptide (PEPSCAN-ELISA signal) [6]: 85 | Binding of CRJA (10 μg/ml) to looped/cyclic peptide (PEPSCAN-ELISA signal) [7]: 89

LGLRLMDGTWVAMQT
Binding of CRJB to linear peptide (PEPSCAN-ELISA signal) [2]: 115 | Binding of CR57 to linear peptide (PEPSCAN-ELISA signal) [3]: 102 | Binding of CRJA to linear peptide (PEPSCAN-ELISA signal) [4]: 113 | Binding of CRJB (10 μg/ml) to looped/cyclic peptide (PEPSCAN-ELISA) [5]: 108 | Binding of CR57 (10 μg/ml) to looped/cyclic peptide (PEPSCAN-ELISA) [6]: 92 | Binding of CRJA (10 μg/ml) to looped/cyclic peptide (PEPSCAN-ELISA) [7]: 97

SRVFPSGKCSGVAVS
Binding of CRJB to linear peptide (PEPSCAN-ELISA signal) [2]: 125 | Binding of CR57 to linear peptide (PEPSCAN-ELISA signal) [3]: 100 | Binding of CRJA to linear peptide (PEPSCAN-ELISA signal) [4]: 107 | Binding of CRJB (10 μg/ml) to looped/cyclic peptide (PEPSCAN-ELISA signal) [5]: 89 | Binding of CR57 (10 μg/ml) to looped/cyclic peptide (PEPSCAN-ELISA signal) [6]: 112 | Binding of CRJA (10 μg/ml) to looped/cyclic peptide (PEPSCAN-ELISA signal) [7]: 92

KWCPPDQLVNLHDFR
Binding of CRJB to linear peptide (PEPSCAN-ELISA signal) [2]: 113 | Binding of CR57 to linear peptide (PEPSCAN-ELISA signal) [3]: 89 | Binding of CRJA to linear peptide (PEPSCAN-ELISA signal) [4]: 97 | Binding of CRJB (10 μg/ml) to looped/cyclic peptide (PEPSCAN-ELISA) [5]: 100 | Binding of CR57 (10 μg/ml) to looped/cyclic peptide (PEPSCAN-ELISA) [6]: 118 | Binding of CRJA (10 μg/ml) to looped/cyclic peptide (PEPSCAN-ELISA) [7]: 102

DEIEHLVVEELVRKR
Binding of CRJB to linear peptide (PEPSCAN-ELISA signal) [2]: 123 | Binding of CR57 to linear peptide (PEPSCAN-ELISA signal) [3]: 94 | Binding of CRJA to linear peptide (PEPSCAN-ELISA signal) [4]: 90 | Binding of CRJB (10 μg/ml) to looped/cyclic peptide (PEPSCAN-ELISA) [5]: 106 | Binding of CR57 (10 μg/ml) to looped/cyclic peptide (PEPSCAN-ELISA) [6]: 113 | Binding of CRJA (10 μg/ml) to looped/cyclic peptide (PEPSCAN-ELISA) [7]: 106

DFRSDEIEHLVVEEL
Binding of CRJB to linear peptide (PEPSCAN-ELISA signal) [2]: 103 | Binding of CR57 to linear peptide (PEPSCAN-ELISA signal) [3]: 99 | Binding of CRJA to linear peptide (PEPSCAN-ELISA signal) [4]: 86 | Binding of CRJB (10 μg/ml) to looped/cyclic peptide (PEPSCAN-ELISA) [5]: 58 | Binding of CR57 (10 μg/ml) to looped/cyclic peptide (PEPSCAN-ELISA) [6]: 127 | Binding of CRJA (10 μg/ml) to looped/cyclic peptide (PEPSCAN-ELISA) [7]: 93

PRYEESLHNPYPDYR
Binding of CRJB to linear peptide (PEPSCAN-ELISA signal) [2]: 115 | Binding of CR57 to linear peptide (PEPSCAN-ELISA signal) [3]: 73 | Binding of CRJA to linear peptide (PEPSCAN-ELISA signal) [4]: 103 | Binding of CRJB (10 μg/ml) to looped/cyclic peptide (PEPSCAN-ELISA signal) [5]: 79 | Binding of CR57 (10 μg/ml) to looped/cyclic peptide (PEPSCAN-ELISA signal) [6]: 92 | Binding of CRJA (10 μg/ml) to looped/cyclic peptide (PEPSCAN-ELISA signal) [7]: 99

DEAEDFVEVHLPDVH
Binding of human monoclonal antibody CRJB to linear peptide (PEPSCAN-ELISA signal) [2]: 136 | Binding of human monoclonal antibody CR57 to linear peptide (PEPSCAN-ELISA signal) [3]: 68 | Binding of human monoclonal antibody CRJA to linear peptide (PEPSCAN-ELISA signal) [4]: 105 | Binding of CRJB to looped/cyclic peptide (PEPSCAN-ELISA signal) [5]: 104 | Binding of CR57 to looped/cyclic peptide (PEPSCAN-ELISA signal) [6]: 89 | Binding of CRJA to looped/cyclic peptide (PEPSCAN-ELISA signal) [7]: 98

IKMNGFTCTGVVTEA
Binding of CRJB to linear peptide (PEPSCAN-ELISA signal) [2]: 108 | Binding of CR57 to linear peptide (PEPSCAN-ELISA signal) [3]: 68 | Binding of CRJA to linear peptide (PEPSCAN-ELISA signal) [4]: 88 | Binding of CRJB (10 μg/ml) to looped/cyclic peptide (PEPSCAN-ELISA signal) [5]: 86 | Binding of CR57 (10 μg/ml) to looped/cyclic peptide (PEPSCAN-ELISA signal) [6]: 93 | Binding of CRJA (10 μg/ml) to looped/cyclic peptide (PEPSCAN-ELISA signal) [7]: 99

STVFKDGDEAEDFVE
Binding of human monoclonal antibody CRJB to linear peptide (PEPSCAN-ELISA signal) [2]: 120 | Binding of human monoclonal antibody CR57 to linear peptide (PEPSCAN-ELISA signal) [3]: 104 | Binding of human monoclonal antibody CRJA to linear peptide (PEPSCAN-ELISA signal) [4]: 93 | Binding of CRJB to looped/cyclic peptide (PEPSCAN-ELISA signal) [5]: 93 | Binding of CR57 to looped/cyclic peptide (PEPSCAN-ELISA signal) [6]: 106 | Binding of CRJA to looped/cyclic peptide (PEPSCAN-ELISA signal) [7]: 100

YKSLKGACKLKLCGV
Binding of CRJB to linear peptide (PEPSCAN-ELISA signal) [2]: 112 | Binding of CR57 to linear peptide (PEPSCAN-ELISA signal) [3]: 80 | Binding of CRJA to linear peptide (PEPSCAN-ELISA signal) [4]: 79 | Binding of CRJB (10 μg/ml) to looped/cyclic peptide (PEPSCAN-ELISA) [5]: 82 | Binding of CR57 (10 μg/ml) to looped/cyclic peptide (PEPSCAN-ELISA) [6]: 96 | Binding of CRJA (10 μg/ml) to looped/cyclic peptide (PEPSCAN-ELISA) [7]: 71

ECLDALESIMTTKSV
Binding of CRJB to linear peptide (PEPSCAN-ELISA signal) [2]: 112 | Binding of CR57 to linear peptide (PEPSCAN-ELISA signal) [3]: 91 | Binding of CRJA to linear peptide (PEPSCAN-ELISA signal) [4]: 103 | Binding of CRJB (10 μg/ml) to looped/cyclic peptide (PEPSCAN-ELISA) [5]: 90 | Binding of CR57 (10 μg/ml) to looped/cyclic peptide (PEPSCAN-ELISA) [6]: 96 | Binding of CRJA (10 μg/ml) to looped/cyclic peptide (PEPSCAN-ELISA) [7]: 110
